What was measured:
[1] = test system: Helicobacter pylori strain 26695 (ATCC700392); test: Embodiment 4: antibacterial experiment against Helicobacter pylori, malate, lactate, citrate and phosphate buffer combinations with ascorbic acid (viable count); type: cell-based
Procedure: The bacteria strain used in the experiment was Helicobacter pylori strain 26695 (ATCC700392), and the bacteria were subcultured on Brucella solid medium (Brucella broth 28 g/L, Agar 15 g/L and 10% (v/v) Horse serum, pH 7.0). After the bacteria were seeded by streaking method, they were cultured in a humidified anaerobic chamber at 37° C. for 72 hours using a microaerobic bag (Genbox microaer, BioMerieux, 96125). […] Brucella broth containing 10 mg/mL of NaHCO3 was added to the Helicobacter pylori subcultured for 72 hours, bacterial concentration was adjusted to 10^7-10^8 CFU/mL as a bacterial solution, the bacterial solution was mixed with each culture solution in a 1:1 ratio, and the mixture was incubated at 37° C. in a humidified anaerobic chamber using a micro-aerobic bag (Genbox microaer, BioMerieux, 96125). […] The malate buffer combination and the lactate buffer combination were prepared by mixing malic acid and sodium malate, and lactic acid and sodium lactate, respectively, in the same way. The phosphate buffer solutions were prepared by mixing KH2PO4 and Na2HPO4 in different ratios according to their pH values, and the unmodulable portion was prepared by HCl and NaOH to reach a constant pH value. The pH of the pure medium was adjusted with HCl and NaOH. […] Finally, the viable count of each culture medium was calculated.

[2] = test system: Helicobacter pylori strain 26695 (ATCC700392); test: Embodiment 1: antibacterial experiment against Helicobacter pylori, citrate and phosphate buffer combinations with or without ascorbic acid (viable count); type: cell-based

For `O=C1O[C@H]([C@@H](O)CO)C(O)=C1O` [ascorbic acid, L-Ascorbic acid], the “effect of the ascorbic acid on the sterilization effect of the citrate or the malate buffer combination” value ([1]; comparing Embodiment 3 and Embodiment 4) was “synergistic effect”, the “effect of the ascorbic acid added to the phosphate buffer combination or water” value ([1]; presence of bicarbonate, Embodiments 3 and 4) was “neither bactericidal effect nor synergistic effect” and the “effect of the ascorbic acid on the sterilization of the citrate buffer combination” value ([2]; comparing C3 with C3V3000, and C4 with C4V3000) was “synergistic effect”. The “effect of the ascorbic acid added to the phosphate buffer combination or water” value ([2]; presence of bicarbonate, Embodiment 1) was “neither the bactericidal effect nor the synergistic effect”.

From patent US11013706B2, “Non-pharmaceutical bactericidal composition against Helicobacter pylori” (ECO-GEO BIO-TECHNOLOGY COMPANY LIMITED., priority 2019, dated 2021)
